Measurements taken from patent EP4467141A1, “PYRAZOLO-QUINOLINES AS SELECTIVE INHIBITORS OF GENOTOXIC STRESS-INDUCED IKK/NF- KB PATHWAYS FOR CANCER THERAPY” (Max-Delbrück-Centrum für Molekulare Medizin in der …, priority 2023, dated 2024).

Legend:
Assay in all cases: Kinase panel study
Type in all cases: biochemical
Conditions in all cases: read-out: Percentage of inhibition; for inhibition at 1 µM: 1000nM; for inhibition at 10 µM: 10000nM
HIPK2 = molecular target: T1, HIPK2 (Homo sapiens, UniProt Q9H2X6)
T1 construct: purchased Thermo Fisher Scientific
T1 sequence (Q9H2X6 whole entry): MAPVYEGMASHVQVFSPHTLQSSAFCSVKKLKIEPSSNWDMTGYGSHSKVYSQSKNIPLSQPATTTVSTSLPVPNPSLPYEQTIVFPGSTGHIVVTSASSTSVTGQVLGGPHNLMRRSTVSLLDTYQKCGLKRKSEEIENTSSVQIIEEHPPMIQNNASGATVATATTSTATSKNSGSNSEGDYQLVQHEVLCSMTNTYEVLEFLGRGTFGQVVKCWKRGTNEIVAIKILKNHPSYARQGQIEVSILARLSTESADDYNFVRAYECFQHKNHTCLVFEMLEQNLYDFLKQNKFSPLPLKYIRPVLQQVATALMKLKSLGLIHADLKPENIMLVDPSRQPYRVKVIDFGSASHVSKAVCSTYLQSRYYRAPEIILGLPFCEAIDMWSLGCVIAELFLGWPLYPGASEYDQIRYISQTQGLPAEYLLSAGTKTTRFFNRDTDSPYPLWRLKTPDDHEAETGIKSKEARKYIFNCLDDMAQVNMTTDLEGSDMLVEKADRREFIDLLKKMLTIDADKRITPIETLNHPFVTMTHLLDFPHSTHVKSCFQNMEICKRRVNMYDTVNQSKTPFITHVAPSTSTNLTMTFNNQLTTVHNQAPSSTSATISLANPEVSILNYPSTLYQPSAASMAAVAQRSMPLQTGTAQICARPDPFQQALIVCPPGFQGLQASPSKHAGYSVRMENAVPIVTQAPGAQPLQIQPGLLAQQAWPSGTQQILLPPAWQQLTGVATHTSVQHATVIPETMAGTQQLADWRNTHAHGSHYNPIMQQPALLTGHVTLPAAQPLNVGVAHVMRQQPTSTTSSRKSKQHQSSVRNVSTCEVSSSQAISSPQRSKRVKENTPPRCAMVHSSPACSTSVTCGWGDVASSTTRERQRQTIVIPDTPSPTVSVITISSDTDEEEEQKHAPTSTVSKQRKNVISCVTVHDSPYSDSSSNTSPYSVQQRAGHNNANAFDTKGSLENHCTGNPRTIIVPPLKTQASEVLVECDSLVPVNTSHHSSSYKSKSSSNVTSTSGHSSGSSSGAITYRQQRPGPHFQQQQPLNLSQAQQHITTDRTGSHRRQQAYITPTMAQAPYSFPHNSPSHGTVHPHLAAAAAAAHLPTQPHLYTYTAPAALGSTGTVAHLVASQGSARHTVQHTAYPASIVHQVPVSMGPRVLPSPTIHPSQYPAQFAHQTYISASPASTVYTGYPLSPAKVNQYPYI
Method in brief: (§1)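 A commercial kinase profiling service ran the assays according to its ZLyte or Adapta standard protocols. Compound was present at 10 µM or 1 µM, and kinase activity loss was expressed as percent inhibition.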

ITK = molecular target: T2, ITK (Homo sapiens, UniProt Q08881)
T2 construct: purchased Thermo Fisher Scientific
T2 sequence (Q08881 1-620): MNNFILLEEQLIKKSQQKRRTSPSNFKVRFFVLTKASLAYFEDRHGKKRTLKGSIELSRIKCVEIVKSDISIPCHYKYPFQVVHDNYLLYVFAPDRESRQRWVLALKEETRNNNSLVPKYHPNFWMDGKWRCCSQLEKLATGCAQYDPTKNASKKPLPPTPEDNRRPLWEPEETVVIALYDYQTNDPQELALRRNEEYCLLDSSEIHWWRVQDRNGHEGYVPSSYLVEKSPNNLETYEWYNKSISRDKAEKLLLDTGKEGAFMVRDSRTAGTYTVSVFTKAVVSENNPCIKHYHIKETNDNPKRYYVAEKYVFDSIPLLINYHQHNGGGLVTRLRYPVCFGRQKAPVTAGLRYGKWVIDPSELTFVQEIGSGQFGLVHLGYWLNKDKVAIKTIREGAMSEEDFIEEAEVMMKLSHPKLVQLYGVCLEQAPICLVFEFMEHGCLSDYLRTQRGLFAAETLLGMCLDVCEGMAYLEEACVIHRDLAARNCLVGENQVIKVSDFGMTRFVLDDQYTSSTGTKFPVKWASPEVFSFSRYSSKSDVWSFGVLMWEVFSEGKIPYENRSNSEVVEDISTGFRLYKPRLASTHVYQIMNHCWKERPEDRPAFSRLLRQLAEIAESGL
Method in brief: as §1

PDGFRA (PDGFR alpha) = molecular target: T3, PDGFRA (PDGFR alpha) (Homo sapiens, UniProt P16234)
T3 construct: purchased Thermo Fisher Scientific
T3 sequence (P16234 24-1089): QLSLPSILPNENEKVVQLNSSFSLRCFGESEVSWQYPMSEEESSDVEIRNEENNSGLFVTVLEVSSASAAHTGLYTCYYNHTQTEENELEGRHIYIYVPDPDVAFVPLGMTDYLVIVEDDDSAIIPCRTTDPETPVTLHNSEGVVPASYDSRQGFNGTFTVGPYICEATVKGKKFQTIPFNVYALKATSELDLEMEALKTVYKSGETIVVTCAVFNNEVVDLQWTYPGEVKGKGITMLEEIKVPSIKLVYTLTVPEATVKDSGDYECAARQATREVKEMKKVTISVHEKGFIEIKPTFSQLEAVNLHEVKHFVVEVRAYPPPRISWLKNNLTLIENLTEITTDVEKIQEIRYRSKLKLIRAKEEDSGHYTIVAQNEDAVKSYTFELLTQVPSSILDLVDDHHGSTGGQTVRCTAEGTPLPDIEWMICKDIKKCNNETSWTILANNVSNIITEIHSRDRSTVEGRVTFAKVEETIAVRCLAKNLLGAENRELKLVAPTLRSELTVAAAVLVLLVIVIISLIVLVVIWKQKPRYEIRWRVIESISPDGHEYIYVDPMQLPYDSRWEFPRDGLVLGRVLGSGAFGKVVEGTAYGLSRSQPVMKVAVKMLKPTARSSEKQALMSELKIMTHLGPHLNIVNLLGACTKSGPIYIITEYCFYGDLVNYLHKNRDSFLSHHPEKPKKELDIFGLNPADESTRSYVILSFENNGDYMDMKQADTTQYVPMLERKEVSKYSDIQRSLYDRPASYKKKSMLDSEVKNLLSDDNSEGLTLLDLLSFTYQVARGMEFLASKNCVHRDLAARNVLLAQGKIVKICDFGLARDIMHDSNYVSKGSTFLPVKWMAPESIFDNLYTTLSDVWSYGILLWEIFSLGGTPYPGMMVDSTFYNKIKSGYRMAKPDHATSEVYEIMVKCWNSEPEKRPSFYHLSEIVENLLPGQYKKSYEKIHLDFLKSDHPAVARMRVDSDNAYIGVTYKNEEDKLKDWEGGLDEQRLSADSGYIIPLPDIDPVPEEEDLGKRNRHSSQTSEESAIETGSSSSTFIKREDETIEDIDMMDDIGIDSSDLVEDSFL
Method in brief: as §1

IGF1R = molecular target: T4, IGF1R (Homo sapiens, UniProt P08069)
T4 construct: purchased Thermo Fisher Scientific
T4 sequence (P08069 31-1367): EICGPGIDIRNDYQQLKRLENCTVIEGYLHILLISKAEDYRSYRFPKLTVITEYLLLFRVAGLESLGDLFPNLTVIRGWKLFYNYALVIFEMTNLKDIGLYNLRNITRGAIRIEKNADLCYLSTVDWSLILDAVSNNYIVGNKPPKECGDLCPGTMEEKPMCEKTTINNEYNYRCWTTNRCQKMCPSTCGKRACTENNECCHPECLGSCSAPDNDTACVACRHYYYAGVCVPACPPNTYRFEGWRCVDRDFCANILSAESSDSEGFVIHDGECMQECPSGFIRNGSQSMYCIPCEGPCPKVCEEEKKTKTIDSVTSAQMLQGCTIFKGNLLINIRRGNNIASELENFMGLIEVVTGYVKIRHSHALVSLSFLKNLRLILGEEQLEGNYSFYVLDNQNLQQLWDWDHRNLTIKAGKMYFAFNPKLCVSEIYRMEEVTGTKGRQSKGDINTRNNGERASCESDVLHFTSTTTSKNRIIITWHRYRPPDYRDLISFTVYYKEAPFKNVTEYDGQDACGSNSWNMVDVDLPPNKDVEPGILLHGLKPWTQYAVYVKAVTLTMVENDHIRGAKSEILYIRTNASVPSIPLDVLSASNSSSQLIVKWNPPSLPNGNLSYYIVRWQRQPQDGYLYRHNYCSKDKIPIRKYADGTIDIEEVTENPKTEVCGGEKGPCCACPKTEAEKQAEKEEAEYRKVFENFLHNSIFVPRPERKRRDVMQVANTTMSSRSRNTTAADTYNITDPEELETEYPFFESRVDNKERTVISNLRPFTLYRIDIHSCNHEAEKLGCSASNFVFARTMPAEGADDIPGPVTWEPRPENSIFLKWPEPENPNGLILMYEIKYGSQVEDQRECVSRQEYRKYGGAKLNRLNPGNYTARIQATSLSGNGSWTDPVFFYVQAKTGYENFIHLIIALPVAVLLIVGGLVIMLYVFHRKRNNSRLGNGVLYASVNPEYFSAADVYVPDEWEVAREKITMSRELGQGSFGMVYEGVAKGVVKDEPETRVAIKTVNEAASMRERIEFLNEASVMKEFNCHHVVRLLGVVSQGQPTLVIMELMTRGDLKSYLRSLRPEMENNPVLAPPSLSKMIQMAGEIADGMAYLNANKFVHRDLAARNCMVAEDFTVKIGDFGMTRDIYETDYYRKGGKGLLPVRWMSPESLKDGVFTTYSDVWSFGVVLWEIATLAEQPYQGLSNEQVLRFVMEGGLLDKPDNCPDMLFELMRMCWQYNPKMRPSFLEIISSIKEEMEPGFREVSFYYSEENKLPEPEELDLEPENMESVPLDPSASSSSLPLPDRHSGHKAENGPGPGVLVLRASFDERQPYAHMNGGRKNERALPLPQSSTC
Method in brief: as §1

AURKC (Aurora C) = molecular target: T5, AURKC (Aurora C) (Homo sapiens, UniProt Q9UQB9)
T5 construct: purchased Thermo Fisher Scientific
T5 sequence (Q9UQB9 1-309): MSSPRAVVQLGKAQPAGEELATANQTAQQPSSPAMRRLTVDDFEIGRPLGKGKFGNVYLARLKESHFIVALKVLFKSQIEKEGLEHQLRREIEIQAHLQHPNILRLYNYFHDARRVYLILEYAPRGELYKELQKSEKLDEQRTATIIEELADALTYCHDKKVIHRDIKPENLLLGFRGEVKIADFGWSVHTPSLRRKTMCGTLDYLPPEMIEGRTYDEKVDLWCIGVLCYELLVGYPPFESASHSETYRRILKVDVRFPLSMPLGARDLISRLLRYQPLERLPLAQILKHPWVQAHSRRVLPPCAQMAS
Method in brief: as §1

TYRO3 (RSE) = molecular target: T6, TYRO3 (RSE) (Homo sapiens, UniProt Q06418)
T6 construct: purchased Thermo Fisher Scientific
T6 sequence (Q06418 41-890): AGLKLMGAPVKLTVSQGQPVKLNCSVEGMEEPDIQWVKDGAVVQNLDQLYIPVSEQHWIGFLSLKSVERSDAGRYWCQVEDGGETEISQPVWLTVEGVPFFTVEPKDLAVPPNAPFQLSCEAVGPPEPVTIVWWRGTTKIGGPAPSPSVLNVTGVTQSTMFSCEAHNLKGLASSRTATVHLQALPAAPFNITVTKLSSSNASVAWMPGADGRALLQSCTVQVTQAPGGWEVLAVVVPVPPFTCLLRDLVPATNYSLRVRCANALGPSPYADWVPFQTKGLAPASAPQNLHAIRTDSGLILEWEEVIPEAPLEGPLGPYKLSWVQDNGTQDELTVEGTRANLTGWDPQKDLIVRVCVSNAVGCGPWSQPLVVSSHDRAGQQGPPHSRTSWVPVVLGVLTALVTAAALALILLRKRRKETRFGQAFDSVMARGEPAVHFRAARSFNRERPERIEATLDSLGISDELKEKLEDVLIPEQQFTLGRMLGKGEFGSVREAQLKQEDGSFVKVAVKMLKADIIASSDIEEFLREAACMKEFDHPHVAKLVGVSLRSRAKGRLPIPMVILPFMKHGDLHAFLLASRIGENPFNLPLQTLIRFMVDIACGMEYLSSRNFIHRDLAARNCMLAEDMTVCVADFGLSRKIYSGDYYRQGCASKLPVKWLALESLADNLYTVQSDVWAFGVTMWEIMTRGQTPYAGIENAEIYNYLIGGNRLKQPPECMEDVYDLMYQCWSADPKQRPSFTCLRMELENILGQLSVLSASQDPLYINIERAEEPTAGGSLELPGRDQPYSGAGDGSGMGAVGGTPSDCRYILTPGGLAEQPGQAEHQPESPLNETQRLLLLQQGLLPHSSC
Method in brief: as §1

## COc1ccc2c(c1OC)c(=O)n1c3ccc(O)cc3c3ccnc2c31 [MW01, 5-Hydroxy-10,11-dimethoxy-9H-benzo[c]indolo[3,2,1-ij][1,5]naphthyridin-9-one]
HIPK2
  inhibition at 1 µM: 48%
  inhibition at 10 µM: 74%
ITK
  inhibition at 1 µM: 0%
  inhibition at 10 µM: -2%
PDGFRA (PDGFR alpha)
  inhibition at 1 µM: 20%
  inhibition at 10 µM: 47%
IGF1R
  inhibition at 1 µM: 11%
  inhibition at 10 µM: 31%
AURKC (Aurora C)
  inhibition at 1 µM: 8%
  inhibition at 10 µM: 10%
TYRO3 (RSE)
  inhibition at 1 µM: 11%
  inhibition at 10 µM: 29%

## COc1ccc2cc3c(N)nn(C(=O)c4cccc(N(C)C)c4)c3nc2c1 [MW05, (3-Amino-7-methoxypyrazolo[3,4-b]quinolin-1-yl)-[3-(dimethylamino)phenyl]methanone]
HIPK2
  inhibition at 1 µM: 4%
  inhibition at 10 µM: 13%
ITK
  inhibition at 1 µM: -10%
  inhibition at 10 µM: -6%
PDGFRA (PDGFR alpha)
  inhibition at 1 µM: 7%
  inhibition at 10 µM: 6%
IGF1R
  inhibition at 1 µM: -1%
  inhibition at 10 µM: -12%
AURKC (Aurora C)
  inhibition at 1 µM: 9%
  inhibition at 10 µM: 9%
TYRO3 (RSE)
  inhibition at 1 µM: 7%
  inhibition at 10 µM: 2%
